Measurements published in paper PMC5478271, “Chemical structure-guided design of dynapyrazoles, cell-permeable dynein inhibitors with a unique mode of action” (eLife, 2017).
Where two headings read alike, the source gives them in different places.

Biological target: T1, human cytoplasmic dynein 1 (GFP-dynein 1, AA 1320–4646) (Homo sapiens, UniProt Q14204)
T1 construct: (AA 1320–4646 with additional valine [at position 4647], uniprot Q14204); protein A tag (followed by TEV-cleavable linker) (N, cleaved yes); made in house; host or cells: insect cells (baculovirus)
Experiment: Microtubule gliding (motility) assay with GFP-dynein 1
Format: biochemical
Source text: To examine the inhibition of dynein 1 by dynapyrazole-A in vitro we generated recombinant human protein. We expressed and purified a GFP-tagged human dynein 1 (AA 1320–4646) construct similar to the one we used for GFP-dynein 2. […] GFP-dynein 1 moves microtubules at 508 ± 60 nm/s (n = 5 independent experiments, 191 microtubules analyzed), a velocity expected based on studies of other mammalian dynein 1 homologs ([Yamada et al., 2008]). Under these conditions, ~97% of the filaments analyzed had velocities >50 nm/s (Figure 5—figure supplement 1). […] As has been previously noted for ciliobrevin D, the potency of dynapyrazole-A was sensitive to the protein (e.g. blocking agent, serum) concentration in solution (Figure 5—figure supplement 4), likely due to the hydrophobicity of these compounds (calculated logarithm of octanol:water partition coefficient [ClogP]: ciliobrevin D: 4.5; dynapyrazole-A: 4.2) ([Firestone et al., 2012]).
Reaction setup: A coverslip-based motility assay was adapted from similar assays reported previously ([Firestone et al., 2012]; [Schmidt et al., 2015]). A flow chamber assembled on a pre-cleaned microscope coverslide (3–5 µL chamber volume) was hydrated with buffer A (25 mM PIPES, 30 mM KCl, 5 mM MgCl2, 1 mM EGTA, 0.01% Triton X-100, 1 mM DTT, 20 µM taxol, pH 7.0 with KOH). Anti-GFP antibody (0.4 mg/mL, affinity purified rabbit antibody) was flowed into the chamber and allowed to adhere non-specifically to the glass for 20 s. The surface was blocked using 0.5 mg/mL α-casein in buffer A. Excess protein was then washed away with buffer A. GFP-dynein motor domain was diluted in buffer A supplemented with 1 mM DTT and 0.1 mM ATP (2 mM DTT final; GFP-dynein 2 diluted to: 180 nM; GFP-dynein 1 diluted to: 60 nM), flowed into the chamber and allowed to bind for 20 s. Excess protein was washed away with buffer A. Reaction mix (25 mM PIPES, 90 mM KCl, 6 mM MgCl2, 1 mM EGTA, 0.01% Triton X-100, 3 mM DTT, 20 µM taxol, 1 mM ATP, 1x oxygen scavenging system components [4.5 mg/mL glucose, 35 µg/mL catalase, 200 µg/mL glucose oxidase], 2% final DMSO [v/v] with compounds at appropriate concentrations, 0.05 mg/mL α-casein, microtubules [rhodamine labeled, purified from bovine brain, GMP-CPP and Taxol-stabilized], pH 7.0 with KOH) was flowed into the chamber using ~4 chamber volumes. For experiments shown in Figure 4—figure supplement 1, α-casein concentration in reaction mix was 0.5 mg/mL and all other parameters were held constant.
For reversibility experiments, motility in the presence of 5 µM 8 was observed as above, and upon completion of imaging, the chamber, fresh buffer A supplemented with 1 mM ATP was flowed into the chamber and incubated for 1 min; this wash and incubation cycle was repeated twice. Reaction mix containing DMSO (no compound) was flowed into the chamber using ~4 chamber volumes. The chamber was sealed with valap and returned to the microscope.
Microscopy conditions: Following addition of reaction mix, microtubules were allowed to bind for 5 min before imaging. For reversibility experiments, microtubules were allowed to bind for 10 min before imaging. […] Velocities were measured using the kymograph tool in FIJI ([Schindelin et al., 2012]). […]
Microtubule velocity measurements: the tracks of microtubules were traced and converted to kymographs (x axis-displacement, y axis-time) using the kymograph function of FIJI (RRID: SCR_002285). The angle formed between an edge of a microtubule and the horizontal was measured. […]

[1] = 1 mM MgATP, 0.05 mg/mL casein, 2% DMSO, read-out: IC50, inhibition of GFP-dynein 1-driven motility

T1 sequence (Q14204 with tags, fused parts or gaps): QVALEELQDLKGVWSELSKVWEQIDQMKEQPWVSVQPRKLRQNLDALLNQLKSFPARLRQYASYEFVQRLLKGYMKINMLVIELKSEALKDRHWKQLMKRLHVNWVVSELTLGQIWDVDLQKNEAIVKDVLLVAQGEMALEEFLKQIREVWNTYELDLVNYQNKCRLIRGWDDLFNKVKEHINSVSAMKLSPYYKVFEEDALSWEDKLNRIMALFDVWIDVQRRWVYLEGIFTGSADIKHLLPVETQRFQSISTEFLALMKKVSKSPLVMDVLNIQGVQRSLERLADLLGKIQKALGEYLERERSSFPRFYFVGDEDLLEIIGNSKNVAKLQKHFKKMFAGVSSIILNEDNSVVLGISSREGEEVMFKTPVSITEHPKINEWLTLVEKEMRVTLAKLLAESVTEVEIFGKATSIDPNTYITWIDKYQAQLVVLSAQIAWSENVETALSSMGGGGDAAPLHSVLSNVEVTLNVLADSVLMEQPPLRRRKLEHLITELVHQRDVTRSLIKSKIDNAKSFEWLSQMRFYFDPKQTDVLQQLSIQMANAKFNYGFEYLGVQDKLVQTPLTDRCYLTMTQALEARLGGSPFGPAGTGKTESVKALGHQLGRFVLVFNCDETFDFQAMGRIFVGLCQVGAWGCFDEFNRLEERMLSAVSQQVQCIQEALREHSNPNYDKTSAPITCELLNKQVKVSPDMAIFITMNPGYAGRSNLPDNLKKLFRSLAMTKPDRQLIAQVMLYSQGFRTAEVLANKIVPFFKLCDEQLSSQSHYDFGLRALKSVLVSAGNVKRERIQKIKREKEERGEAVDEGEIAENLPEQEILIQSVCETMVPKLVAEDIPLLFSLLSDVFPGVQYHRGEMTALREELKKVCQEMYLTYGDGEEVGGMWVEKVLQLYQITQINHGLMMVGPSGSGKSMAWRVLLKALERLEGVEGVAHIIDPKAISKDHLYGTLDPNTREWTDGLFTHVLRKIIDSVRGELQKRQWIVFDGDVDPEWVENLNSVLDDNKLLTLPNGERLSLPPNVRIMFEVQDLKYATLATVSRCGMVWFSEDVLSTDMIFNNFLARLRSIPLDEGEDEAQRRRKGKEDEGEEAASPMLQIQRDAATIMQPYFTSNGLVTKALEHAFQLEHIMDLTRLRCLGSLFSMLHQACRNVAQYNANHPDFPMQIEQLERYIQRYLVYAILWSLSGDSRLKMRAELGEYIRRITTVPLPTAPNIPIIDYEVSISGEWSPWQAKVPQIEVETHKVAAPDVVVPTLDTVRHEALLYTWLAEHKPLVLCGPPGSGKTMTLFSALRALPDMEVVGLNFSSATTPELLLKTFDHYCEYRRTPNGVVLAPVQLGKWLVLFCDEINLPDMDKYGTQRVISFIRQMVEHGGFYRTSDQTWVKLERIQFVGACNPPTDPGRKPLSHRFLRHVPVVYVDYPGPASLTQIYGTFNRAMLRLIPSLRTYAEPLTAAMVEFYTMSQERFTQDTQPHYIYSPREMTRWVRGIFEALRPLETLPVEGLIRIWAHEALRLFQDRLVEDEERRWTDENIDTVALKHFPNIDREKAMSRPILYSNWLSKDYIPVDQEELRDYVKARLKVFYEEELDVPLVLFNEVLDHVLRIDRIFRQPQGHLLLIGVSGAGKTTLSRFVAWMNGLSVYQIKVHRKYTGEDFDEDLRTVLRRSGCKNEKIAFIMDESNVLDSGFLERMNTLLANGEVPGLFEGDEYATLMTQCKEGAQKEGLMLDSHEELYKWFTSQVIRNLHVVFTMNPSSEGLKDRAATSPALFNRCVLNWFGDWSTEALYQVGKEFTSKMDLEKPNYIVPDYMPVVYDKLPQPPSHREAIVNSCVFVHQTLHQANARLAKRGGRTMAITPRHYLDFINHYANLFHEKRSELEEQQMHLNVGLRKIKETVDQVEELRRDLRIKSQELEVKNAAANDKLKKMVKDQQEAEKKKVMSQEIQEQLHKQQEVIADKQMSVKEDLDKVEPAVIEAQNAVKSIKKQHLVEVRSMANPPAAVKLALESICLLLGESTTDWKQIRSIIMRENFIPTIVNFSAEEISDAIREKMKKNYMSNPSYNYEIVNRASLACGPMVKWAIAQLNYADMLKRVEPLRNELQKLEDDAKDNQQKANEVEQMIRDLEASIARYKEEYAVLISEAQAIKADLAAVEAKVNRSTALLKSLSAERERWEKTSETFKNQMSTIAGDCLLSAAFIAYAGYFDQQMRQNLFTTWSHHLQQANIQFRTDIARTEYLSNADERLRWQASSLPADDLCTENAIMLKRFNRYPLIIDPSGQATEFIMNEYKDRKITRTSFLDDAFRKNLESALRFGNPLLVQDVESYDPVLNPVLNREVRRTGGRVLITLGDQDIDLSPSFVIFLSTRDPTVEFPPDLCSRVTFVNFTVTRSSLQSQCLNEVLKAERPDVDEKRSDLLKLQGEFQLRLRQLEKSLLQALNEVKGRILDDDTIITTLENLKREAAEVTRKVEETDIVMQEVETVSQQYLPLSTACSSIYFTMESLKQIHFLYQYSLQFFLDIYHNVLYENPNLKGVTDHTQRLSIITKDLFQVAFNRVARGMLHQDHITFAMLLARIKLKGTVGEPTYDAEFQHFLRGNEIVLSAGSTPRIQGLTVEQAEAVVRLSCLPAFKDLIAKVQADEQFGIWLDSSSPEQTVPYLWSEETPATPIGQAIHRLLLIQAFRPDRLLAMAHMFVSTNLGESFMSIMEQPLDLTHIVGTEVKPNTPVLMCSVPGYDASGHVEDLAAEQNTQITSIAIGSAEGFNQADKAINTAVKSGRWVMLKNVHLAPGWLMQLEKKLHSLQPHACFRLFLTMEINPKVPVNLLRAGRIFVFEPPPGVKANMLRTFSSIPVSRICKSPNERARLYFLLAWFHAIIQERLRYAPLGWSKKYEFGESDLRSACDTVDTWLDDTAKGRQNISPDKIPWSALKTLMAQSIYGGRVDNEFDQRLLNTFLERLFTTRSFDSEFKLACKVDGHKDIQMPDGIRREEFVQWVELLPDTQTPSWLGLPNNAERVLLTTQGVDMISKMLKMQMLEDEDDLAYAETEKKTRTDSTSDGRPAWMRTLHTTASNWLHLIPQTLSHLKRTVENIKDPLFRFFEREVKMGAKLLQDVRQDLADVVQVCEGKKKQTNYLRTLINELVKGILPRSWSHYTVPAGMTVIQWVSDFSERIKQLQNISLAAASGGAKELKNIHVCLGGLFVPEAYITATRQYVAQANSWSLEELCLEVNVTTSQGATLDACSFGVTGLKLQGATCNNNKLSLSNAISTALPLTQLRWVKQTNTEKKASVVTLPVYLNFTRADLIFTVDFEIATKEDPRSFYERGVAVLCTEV

Q: Which “Reversibility of inhibition of dynein-1-dependent microtubule gliding after washout” value (5 µM 8, then washout, 1 mM ATP, 0.05 mg/mL casein) does the source give for N#Cc1c(C2(c3ccc(Cl)cc3)CC2)nn2c1[nH]c(=O)c1cc(I)ccc12 [Compound 8, 2-[1-(4-chlorophenyl)cyclopropyl]-7-iodo-5-oxo-4H-pyrazolo[1,5-a]quinazoline-3-carbonitrile] here?
A: The value was “reversed following washout”.

Q: And the IC50 (1 mM ATP, 0.5 mg/mL casein, read-out: IC50, inhibition of GFP-dynein 1-driven motility in the presence of 0.5 mg/ml casein)?
A: The IC50 was 10.5 ± 4.6 µM.

Q: What about the IC50 [1] of the same molecule?
A: Its IC50 is 2.3 ± 1.4 µM.

Q: And the “Potency relative to ciliobrevin D, GFP-dynein-1-driven motility” value (more potent than ciliobrevin D)?
A: Its value is ~ 6 fold.

Q: N#C/C(C(=O)c1ccc(Cl)cc1Cl)=C1\NC(=O)c2ccc(Cl)cc2N1 [ciliobrevin D, reference compound] was tested. Which IC50 [1] did it give?
A: Its IC50 is 15 ± 2.9 µM.
